# According to US9611248B2, “Chemical compounds” (Syngenta Participations AG, priority 2013, dated 2017):
# Test system: a variety of test species
# Assay: Post-emergence herbicidal activity
# Type: in vivo
# Design: key to ABUTH (Abutilon theophrasti) damage score / AMARE (Amaranthus retroflexus) damage score / ALOMY (Alopecurus myosuroides) damage score / ECHCG (Echinochloa crus-galli) damage score / ZEAMX (Zea mays) damage score / SOLNI (Solanum nigrum) damage score: 0 = no damage to plant, 5 = total damage to plant
# Details: rate 1000 g/ha, evaluated after 13 days
# Summary of the method: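 Plants grown for 8 days in pots were sprayed post-emergence with compound in acetone/water (50:50) containing 0.5% Tween 20. They were kept in a glasshouse at 24/16 °C day/night, 14 h light, 65% humidity, watered twice daily. Damage was scored after 13 days (0 none to 5 total).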
Structure (SMILES),ABUTH (Abutilon theophrasti) damage score,ALOMY (Alopecurus myosuroides) damage score,AMARE (Amaranthus retroflexus) damage score,ECHCG (Echinochloa crus-galli) damage score,SETFA (Setaria faberi) damage score,ZEAMX (Zea mays) damage score
COC1=C(C)C(=O)N(c2cc(C(F)(F)F)c(-c3ccc(C)c([N+](=O)[O-])c3)cn2)C1O (stereo not drawn) [AD127],2,1,5,4,4,4
COC1=C(C)C(=O)N(c2cc(C(F)(F)F)c(-c3ccccc3)cn2)C1O (stereo not drawn) [AD128],5,3,5,5,5,2
COC1=C(C)C(=O)N(c2cc(C(F)(F)F)c(-c3ccccc3[N+](=O)[O-])cn2)C1O (stereo not drawn) [AD129],5,2,5,4,4,2
COC1=C(C)C(=O)N(c2cc(C(F)(F)F)c(-c3ccc(F)cc3F)cn2)C1O (stereo not drawn) [AD131],5,2,5,4,4,1
COC1=C(C)C(=O)N(c2cc(C(F)(F)F)c(-c3ccccc3C)cn2)C1O (stereo not drawn) [AD132],5,2,5,4,5,2
COC1=C(C)C(=O)N(c2cc(C(F)(F)F)c(-c3cccc(F)c3)cn2)C1O (stereo not drawn) [AD133],5,2,5,4,4,3
COC1=C(C)C(=O)N(c2cc(Cl)c(-c3ccsc3)cn2)C1O (stereo not drawn) [AD134],3,1,5,2,5,1
"COC1=C(Br)C(O)N(c2cc(C(F)(F)F)ccn2)C1=O (stereo not drawn) [AE1, 3-bromo-2-hydroxy-4-methoxy-1-[4-(trifluoromethyl)-2-pyridyl]-2H-pyrrol-5-one]",4,3,5,5,3,0
COC1=C(Br)C(O)N(c2cc(C(C)(C)C)ccn2)C1=O (stereo not drawn) [AE2],4,1,2,2,4,1
COC1=C(Cl)C(O)N(c2cc(C(C)(C)C)ccn2)C1=O (stereo not drawn) [AF1],5,2,5,4,4,1
COC1=C(Cl)C(O)N(c2cc(C(F)(F)F)ccn2)C1=O (stereo not drawn) [AF2],5,4,5,5,5,3
COC1=C(Cl)C(O)N(c2cc(C(C)(F)F)ccn2)C1=O (stereo not drawn) [AF3],5,3,5,5,5,1
COc1nnc(N2C(=O)C(C)=C(Cl)C2O)cc1C (stereo not drawn) [BA1],2,2,3,1,2,1
COc1nnc(N2C(=O)C(C)=C(Br)C2O)cc1C (stereo not drawn) [BB1],1,0,0,1,2,0
"COC1=C(C)C(=O)N(c2cc(C(C)(C)C)cnn2)C1O (stereo not drawn) [BD1, 1-(5-tert-butylpyridazin-3-yl)-2-hydroxy-3-methoxy-4-methyl-2H-pyrrol-5-one]",5,4,5,5,5,1
COC1=C(C)C(=O)N(c2cc(C(C)(C)C)c(Cl)nn2)C1O (stereo not drawn) [BD2],5,4,5,5,5,2
COC1=C(C)C(=O)N(c2ccc(Cl)nn2)C1O (stereo not drawn) [BD3],1,1,2,1,2,0
COC1=C(C)C(=O)N(c2cc(C(C)(C)CCl)c(Cl)nn2)C1O (stereo not drawn) [BD4],5,4,4,4,5,0
COC1=C(C)C(=O)N(c2cc(C(C)C)c(OC)nn2)C1O (stereo not drawn) [BD5],5,5,5,5,5,3
C=CCOc1nnc(N2C(=O)C(C)=C(OC)C2O)cc1C(C)C (stereo not drawn) [BD6],1,1,0,1,2,1
CCOc1nnc(N2C(=O)C(C)=C(OC)C2O)cc1C(C)C (stereo not drawn) [BD7],5,5,5,5,5,3
COC1=C(C)C(=O)N(c2cc(C(C)(C)F)c(Cl)nn2)C1O (stereo not drawn) [BD8],5,4,5,5,5,2
COC1=C(C)C(=O)N(c2cc(C(C)(C)C)c(-c3ccc(F)cc3)nn2)C1O (stereo not drawn) [BD9],2,3,5,2,4,1
COC1=C(C)C(=O)N(c2cc(C(C)(C)C)c(OC)nn2)C1O (stereo not drawn) [BD10],5,5,5,5,5,4
